Experimental data from a melting point compilation (Tetko et al.; mined from patent text by program, amines drawn as free bases though some values may be those of a salt).

Row | melting point [°C] | SMILES
1 | 207 | CCOC(=O)C1=C(COCC2=CC(=O)N=N2)NC(C)=C(C(=O)OC)C1c1ccccc1Cl (configuration not stated)
2 | 133 to 145 | CC(=O)NC(C(=O)NC1c2cc(C#N)ccc2OC(C)(C)C1O)c1ccccc1 (configuration not stated)
3 | 147 to 149 | O=C(CC(CSc1nc2ccccc2s1)C(=O)NC1CCCCC1)NC1CCCCC1 (configuration not stated)
4 | 142 to 145 | NC(Cc1coc2c(Cl)cccc12)=NO
5 | 262 to 268 | O=C(O)c1cc(F)ccc1Nc1ccnc2c(C(F)(F)F)cccc12
6 | 64 to 65 | Cc1cc(I)ccc1O
7 | 67 to 68 | Cc1nc2cc(C(F)(F)F)ccc2n1-c1ccc(OC(C)CCC(=O)O)cc1 (configuration not stated)
8 | 193 to 195 | CCOC(=O)c1ncn(-c2nc(C)cs2)c1S
9 | 242 to 244 | O=C1c2cccc(Sc3ccccc3)c2C(=O)c2cccc(Nc3ccc([N+](=O)[O-])cc3)c21
10 | 168 to 171 | Cc1cc(N2CCN(c3c(C)c(C)c4c(c3C)CC(C)(C)O4)CC2)ccc1Cl
11 | 44 to 45 | CCCCC(C)(OC)C(O)C=CC1C(O)CC(=O)C1CCCCCCC(=O)OC (configuration not stated)
12 | 100 to 104 | CN1C(=O)CC[C@]2(C)c3ccc(-c4cccc5ncccc45)cc3CC[C@@H]12
13 | 46 to 48 | CCOC(=O)CCc1cc(O)ccc1-c1ccc(-c2cccnc2)c(CO)c1
14 | 70 to 71 | CCCCc1ccc(C(=O)NCCC(C)(C)C)cc1
15 | 142 to 145 | CCCCOc1ccc(-c2ccc3c(c2)C=C(C(=O)Nc2ccc(C(O)c4ccccn4)cc2)CCS3(=O)=O)cc1 (configuration not stated)
16 | 184 to 186 | COc1ccc(Nc2ncnc(NCc3ccco3)n2)cc1
17 | 118 to 119 | CCOC(=O)c1sc(N(C)C)c2c1CCc1cnn(C)c1-2
18 | 154 to 156 | CC(C)n1nc(-c2c(-c3ccccc3)nn3ccc(OCCc4ccccc4)cc23)ccc1=O
19 | 244 to 245 | CC(=O)Nc1cc(Cn2c(C(=O)c3cc(C)cc(C)c3)c(C(C)C)c(=O)[nH]c2=O)ccn1
20 | 127 to 128 | Cc1ccc2nc(C)c(CCN3CCN(c4cccc(Cl)c4)CC3)c(=O)n2c1
21 | 205 to 210 | CCc1ccc2c(c1)C=Cc1oc(C)nc1C2c1cn(-c2ccnc(NCC(=O)Nc3nc(CC(=O)O)cs3)n2)c(=O)[nH]c1=O (configuration not stated)
22 | 252 | CN(C1CCS(=O)(=O)CC1)S(=O)(=O)c1ccc(Nc2ccnc(Nc3ccc(F)cc3)n2)cc1
23 | 197 to 199 | CC1C2C(CON2C)CN1c1c(F)cc2c(=O)c(C(=O)O)cn(C3CC3)c2c1F (configuration not stated)
24 | 184 to 185 | CC(C)(O)CCCc1onc(-c2ccccc2)c1-c1ccc(S(N)(=O)=O)cc1

Row | melting point [°C] | SMILES
25 | 152 to 153 | COc1ccc(Cn2c(=O)ccc3c(C)nc(N4CCC[C@H]4CO)nc32)cc1Cl
26 | 117 to 119 | O=S(=O)(Cl)c1ccc(-c2ccc3c(c2)OCO3)s1
27 | 132 to 136 | C#CCOc1cc2c(cc1OC)C(=C(C#N)C(=O)OCC)CC2(C)C
28 | 162 to 163 | CCOC(=O)C(=C(C)N)c1nc(N)c([N+](=O)[O-])nc1Cl
29 | 213 to 215 | CC(C)n1c(=O)nc(-c2ccc3ccccc3c2)c2cc3c(cc21)OCO3
30 | 70 | O=C(O)CCOc1cccc(CNC(=O)C2Cc3ccccc3N2S(=O)(=O)c2ccc(-c3cccc(C(F)(F)F)c3)cc2)c1 (configuration not stated)
31 | > 330 | Nc1c(C(=O)O)c(=O)[nH]c2cc(Cl)ccc12
32 | 214 | COc1ccc(-c2coc3c(C)c(OCC4CO4)ccc3c2=O)cc1OC (configuration not stated)
33 | 179 | CCn1c(N)c(C(N)=O)c(=O)c2cnc(Nc3ccc(N4CCN(C(C)=O)CC4)cc3)nc21
34 | 77 to 79 | CC(C)(C)C(=O)C(Cc1cccnc1)Oc1ccc(Cl)cc1 (configuration not stated)
35 | 128 to 136 | CCc1ccc2c(c1)NC(=O)C2=O
36 | 104 to 106 | COC(=O)c1cc(-c2ccc(OC)c(OC)c2)nn(CC(C)C)c1=O
37 | 186 to 187 | O=C1CCCN1[C@@H]1c2cc(C(F)(F)F)ccc2OC(CF)(CF)[C@H]1O (relative stereo)
38 | 196 | Cc1cc(C#N)c(C)c(C(=O)Nc2ccc(F)cn2)n1
39 | 190 to 193 | CC(C)n1c(-c2ccccc2)nc(-c2ccc(F)cc2)c1CO
40 | 100 to 102 | CCCC[C@H](NC(=O)[C@H](CC(C)C)NC(=O)c1ccc(C(=O)OC)cc1)C(=O)CSCc1ccco1
41 | 201 to 204 | CCCn1c(COC)nc2c(N)nc3ccc(OCC(=O)N4CCOCC4)cc3c21
42 | 113 to 115 | COc1cc2c(cc1OC)[C@H]([C@H](O)c1ccccc1)OC2=O
43 | 148 to 149 | CC1=CC(=C(C#N)C#N)C=C(C)N1CCOCCCl
44 | 141 to 144 | O=S(=O)(c1ccc(I)cc1)N1CCOCC1
45 | 183 to 184 | COc1ccc(-c2cccn2-c2ccc(S(N)(=O)=O)cc2)cc1
46 | 203 | NS(=O)(=O)c1ccc(C(=O)NCc2ccccc2)s1
47 | 225 to 226 | CC(C)(C)c1ccc(S(=O)(=O)Nc2cc(Cl)ncn2)cc1
48 | 214 | CC(C)(C)c1ccc(NC(=O)c2cccc(C(OC(=O)Nc3ccc4[nH]ncc4c3)[C@@H]3CCCCN3)c2)cc1 (some centres not stated)

Row | melting point [°C] | SMILES
49 | 61 to 64 | CC(C#N)c1ccc(Cc2ccccc2CC#N)cc1 (configuration not stated)
50 | 154 to 155 | CSc1ccc(/C=C2\N=C(C)OC2=O)cc1
51 | 87 to 89 | O=C(OC1CCN(Cc2ccccc2)CC1)c1ccc([N+](=O)[O-])cc1
52 | 170 to 173 | O=C(OC1CCCCC1)C(c1ccccc1)n1cnc2[nH]ncc2c1=S (configuration not stated)
53 | 184 to 186 | CCOc1nccc(-c2c(-c3ccc(F)cc3)ncn2[C@H]2CC[C@H](O)CC2)n1
54 | 150 to 152 | CSc1nccc(C(C)=NO)n1
55 | 137 to 138 | Cc1ccc(C(C)(C)C)cc1S(=O)(=O)Cl
56 | 111 to 113 | CCOC(=O)c1ccc2c(S)cccn2c1=O
57 | 267 to 269 | Cn1nnc2cc(C(=O)NC3CCCn4c3nc(-c3ccncc3)cc4=O)ccc21 (racemic)
58 | 177 to 179 | O=C1NC(=O)N2C(c3ccccc3)SC[C@@H]12 (some centres not stated)
59 | 90 | CCOC(=O)c1cc(CC)sc1Nc1ccc(F)cc1[N+](=O)[O-]
60 | 208 | NC(=O)c1[nH]cnc1OC(=O)C(=Cc1ccccc1)c1ccccc1
61 | 342 to 343 | Cn1c(=O)[nH]c2nccnc2c1=O
62 | 84 to 88 | CCOC(=Cc1ccncc1)C(C)=O
63 | 187 to 189 | O=S(=O)(NCc1ccc(O)cc1)c1ccc(Cl)cc1
64 | 158 to 159 | Cc1oc(-c2ccccc2)nc1COc1nn(Cc2ccc(Oc3ccccc3)cc2)cc1C(N)=O
65 | 176 to 178 | CC(C)(C)c1ccc(Cn2c(=S)n(Cc3ccc(NS(C)(=O)=O)cc3)c3ccccc32)cc1
66 | 130 | O=P(c1ccccc1)(c1ccccc1)N1C[C@@H](P(c2ccccc2)c2ccccc2)C[C@H]1CP(c1ccccc1)c1ccccc1
67 | 77 to 83 | CN(C)C=C(C=CC#N)c1ccccc1
68 | 234 to 235 | O=C(O)C1=Cc2cc(Cl)c(Oc3ccccn3)cc2OC1C(F)(F)F (configuration not stated)
69 | 167 to 168 | O=C(O)CN(C(=O)CCCCl)c1csc2ccccc12
70 | 140 to 142 | OCCCN1CCC(c2noc3cc(F)ccc23)CC1
71 | 83 to 85 | COc1ccc(C2Cc3ccccc3C2=O)cc1 (configuration not stated)
72 | 103 to 106 | NNc1nccc(-c2cccc(C(F)(F)F)c2)n1

Row | melting point [°C] | SMILES
73 | 120 to 122 | CCCCc1nc(Cl)c(C(=O)N2CCCC2)n1Cc1ccc2oc(-c3ccccc3-c3nnn[nH]3)c(Br)c2c1
74 | 160 to 164 | CCOC(=O)C1=C(COCC#CC(O)c2ccccc2)NC(C)=C(C(=O)OC)C1c1cccc(Cl)c1Cl (configuration not stated)
75 | 147 to 150 | CCOC(=O)c1cnc2cc(OC)c(OC)cc2c1Cl
76 | 237 to 239 | O=C(NC(Cc1ccc(OCc2ccccc2)cc1)C(=O)O)c1cn2cc(-c3ccc(Cl)cc3Cl)ccc2n1 (configuration not stated)
77 | 125 to 126 | COC(=O)c1sc(S(C)(=O)=O)cc1OCc1ccccc1
78 | 80 to 83 | COC1=C(OC)C(=O)C2=C(CC(CCCCOc3ccc(C(=O)N(C)C)cc3)C2)C1=O
79 | 189 to 190 | CC(C)n1nc(-c2sc(NC(C)(C)C)nc2-c2ccccc2)ccc1=O
80 | 170 | CCCCN1CCCC1CNC(=O)c1cc(S(N)(=O)=O)cc2c1OC(C)C2 (configuration not stated)
81 | 120 to 122 | NC(=S)NCc1ccccc1Cl
82 | 154 to 156 | O=C(Nc1ccccc1N1CCOCC1)c1cccc2c1C(=O)c1ccccc1-2
83 | 140 to 143 | CC(=O)OCCN1C(=O)C(=Cc2cc(C(C)(C)C)c(O)c(C(C)(C)C)c2)SC1=S
84 | 69 to 71 | OCC(O)Cc1cc(Cl)c2ccccc2c1OCc1ccccc1 (configuration not stated)
85 | 181 to 182 | CCc1cccc(C)c1NC(=O)C(C)Br (configuration not stated)
86 | 146 | OC(c1ccccc1)(C1CC1)C(c1ccccc1Cl)n1ccnc1 (configuration not stated)
87 | 128 to 131 | CCOC(=O)c1cnc2c(c(-c3ccccc3)nn2C)c1N(C)S(=O)(=O)c1ccc(Oc2ccncc2)cc1
88 | 257 | NS(=O)(=O)c1cccc(NC(=O)c2cnn3c(C(F)(F)F)cc(-c4ccc(OC(F)(F)F)cc4)nc23)c1
89 | 223 | Cc1c(C(=O)Nc2ccc(N3CCC(N4CCOCC4)CC3)c(C#N)c2)cnn1-c1ccccc1
90 | 203 | O=C1c2ccc([N+](=O)[O-])cc2C2(c3ccccc3)NCCN12 (configuration not stated)
91 | 115 to 116 | C#CCc1c(C)nc2c(NCc3ccccc3Cl)cccn12
92 | 161 to 163 | CCCC1C(=O)N(S(=O)(=O)c2ccc3ccccc3c2)C2CCN(C(=O)CN3CCCCC3)C12 (configuration not stated)
93 | 124 to 125 | COc1ccc(S(=O)(=O)CCNC(=O)N2CCCC2=O)cc1
94 | 130 to 131 | CCOC(=O)Cc1nnc(-c2ccc(OC)cc2)n1-c1ccccc1
95 | 145 | CCOC(=O)C1=C(N)N=C(OCC)C(C(=O)OCC)C1c1ccc(-c2ccccc2)cc1 (configuration not stated)
96 | 238 | O=C1N=C(N2CCOCC2)SC1=Cc1ccc(OC(F)(F)F)c(-c2cc(F)c(O)c(C34CC5CC(CC(C5)C3)C4)c2)c1

Row | SMILES | melting point [°C]
97 | CN(C)CCc1ccc([N+](=O)[O-])c2[nH]ncc12 | 145 to 146
